Consider one compound from US20250236789A1, “SECOND NEAR-INFRARED ORGANIC FLUORESCENT PROBE, PREPARATION METHOD AND USE THEREOF” (INNER MONGOLIA UNIVERSITY, priority 2024, published 2025).

Series [1] in a line: Emission spectrum test in aqueous solution under excitation of white light. It is filed as physicochemical. The note with it: 10 μmol·L^−1, white light excitation. As for the experimental part:
(3) Emission spectrum test of fluorescent probe coated nanoparticles: The emission spectra of HY6CT-NPs, FY6CT-NPs and CY6CT-NPs in aqueous solution were tested with steady-state transient fluorescence spectrometer, at a test concentration of 10 μmol·L^−1.

A short description of series [2]: NIR-II fluorescence imaging of aqueous solutions in PE tubes under excitation of white light. It is filed as physicochemical. The note with it: aqueous solution, 10 μmol·L^−1. An excerpt: Using NIR-II small animal imager, the PE tubes filled with the same concentration of nano-imaging probes were imaged at a test concentration of 10 μmol·L^−1.

In the case of `CC1(C)C(/C=C/C=C/C=C/C=C2\N(CCCCS(=O)(=O)[O-])c3ccc4ccccc4c3C2(C)C)=[N+](CCCCS(=O)(=O)[O-])c2ccc3ccccc3c21.[Na+]` [ICG], in series [1], the “emission spectrum under white light (in words)” value is “can hardly be detected”. Further, in series [2], the “NIR-II fluorescence signal under excitation of white light (in words)” value is recorded as “could not detect fluorescence signals”.
